Reference: patent publication US20260042764A1, “COMPOSITIONS AND METHODS FOR INHIBITION OF KRAS” (TheRas, Inc., priority 2022, published 2026)

Experiments:
GP2d cells (KRAS G12D) = experiment: Cell-based pERK HTRF assay in GP2d cell (Biological Example 2)
Outline: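 Phospho-ERK is measured by HTRF following a 60 min compound exposure at 0.25% DMSO, with a 9-point half-log curve topping at 1 μM or 100 nM.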

[1] = biological target: T1, Avi-KRAS G12V (2-169) GTP/RAF1 RBD-3xFLAG (51-131) (Homo sapiens, UniProt P01116, G12V); experiment: Raf1-KRAS G12V-GTP disruption HTRF assay (Biological Example 3); assay type: binding
T1 construct: Avi-KRAS G12V (2-169)
Outline: (§1)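 Compounds were titrated 10-point, 3-fold from 30 μM against preformed KRAS-GTP:RAF1 RBD (51-131) complexes at 50 nM, using KRAS 2-169 as WT, G12C, G12D or G12V. After 1 h at room temperature in Tris pH 7.5 buffer with MgCl2 and 10% DMSO, time-resolved fluorescence was read. Results are percent activity versus DMSO.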

[2] = biological target: T2, Avi-KRAS G12D (2-169) GTP/RAF1 RBD-3xFLAG (51-131) (Homo sapiens, UniProt P01116, G12D); experiment: Raf1-KRAS G12D-GTP disruption HTRF assay (Biological Example 3); assay type: binding
T2 construct: Avi-KRAS G12D (2-169)
Outline: as §1

[3] = biological target: T3, Avi-KRAS WT (2-169) GTP/RAF1 RBD-3xFLAG (51-131) (Homo sapiens, UniProt P01116); experiment: Raf1-KRAS WT-GTP disruption HTRF assay (Biological Example 3); assay type: binding
T3 construct: Avi-KRAS WT (2-169)
Outline: as §1

[4] = biological target: T4, Avi-KRAS G12C (2-169) GTP/RAF1 RBD-3xFLAG (51-131) (Homo sapiens, UniProt P01116, G12C); experiment: Raf1-KRAS G12C-GTP disruption HTRF assay (Biological Example 3); assay type: binding
T4 construct: Avi-KRAS G12C (2-169)
Outline: as §1

SW620 cells (KRAS G12V) = experiment: Cell-based pERK HTRF assay in SW620 cell (Biological Example 4)
Outline: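 SW620 seeded in RPMI/10% FBS, next day dosed 4 h (top 1 μM, half-log, 9 pts, 0.25% DMSO). Lysed, pERK by d2/Eu cryptate HTRF, 4–24 h RT, 615 nm read.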

[5] = Homo sapiens, SW-620, SW620 (KRAS G12V) cells

T4 sequence (P01116 2-169 isoform P01116-2 G12C): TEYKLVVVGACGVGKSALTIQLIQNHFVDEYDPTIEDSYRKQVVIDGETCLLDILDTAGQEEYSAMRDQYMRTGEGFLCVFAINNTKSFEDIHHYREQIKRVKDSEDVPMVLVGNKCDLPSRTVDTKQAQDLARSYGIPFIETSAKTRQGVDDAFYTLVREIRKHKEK
T2 sequence (P01116 2-169 isoform P01116-2 G12D): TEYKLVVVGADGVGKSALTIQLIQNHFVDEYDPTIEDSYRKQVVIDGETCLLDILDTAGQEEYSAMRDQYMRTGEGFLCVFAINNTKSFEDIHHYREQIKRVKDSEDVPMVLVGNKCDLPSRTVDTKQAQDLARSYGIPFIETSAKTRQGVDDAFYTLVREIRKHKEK
T1 sequence (P01116 2-169 isoform P01116-2 G12V): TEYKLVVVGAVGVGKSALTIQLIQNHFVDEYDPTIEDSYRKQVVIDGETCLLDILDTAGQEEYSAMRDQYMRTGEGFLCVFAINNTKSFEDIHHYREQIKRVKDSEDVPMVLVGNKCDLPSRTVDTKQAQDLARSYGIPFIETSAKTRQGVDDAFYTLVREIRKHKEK
T3 sequence (P01116 2-169 isoform P01116-2): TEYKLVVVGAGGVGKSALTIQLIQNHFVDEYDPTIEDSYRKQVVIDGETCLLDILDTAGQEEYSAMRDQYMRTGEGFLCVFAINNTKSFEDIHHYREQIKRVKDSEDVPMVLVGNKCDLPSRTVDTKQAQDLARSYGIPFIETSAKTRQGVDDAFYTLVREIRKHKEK

IC50 (GP2d cells (KRAS G12D); GP2d, GP2d (KRAS G12D) cells)	IC50 ([1]; KRAS G12V, GTP-loaded)	IC50 ([2]; KRAS G12D, GTP-loaded)	IC50 ([3]; KRAS WT, GTP-loaded)	IC50 ([4]; KRAS G12C, GTP-loaded)	IC50 (SW620 cells (KRAS G12V); [5])	IC50 (GP2d cells (KRAS G12D); GP2d, GP2d cells (KRAS G12D))	IC50 ([1]; KRAS G12V-GTP / RAF1 RBD HTRF)	IC50 ([2]; KRAS G12D-GTP / RAF1 RBD HTRF)	IC50 ([3]; KRAS WT-GTP / RAF1 RBD HTRF)	IC50 ([4]; KRAS G12C-GTP / RAF1 RBD HTRF)	IC50 (SW620 cells (KRAS G12V); Homo sapiens, SW-620, SW620 cells (KRAS G12V))	IC50 (GP2d cells (KRAS G12D); GP2d (KRAS G12D) cells)	IC50 (SW620 cells (KRAS G12V); SW620 (KRAS G12V) cells)	Structure (SMILES)
< 100 nM	> 10000 nM	1000 to 10000 nM	> 10000 nM	> 10000 nM	< 100 nM									CCN(c1nc(OCC23CCCN2CC(F)C3)nc2c(F)c(-c3ccc(F)c4sc(N)c(C#N)c34)c(C(F)(F)F)cc12)C(C)c1cccnc1 (stereo not drawn) [Compound 933]
						< 100 nM	100 to 1000 nM	100 to 1000 nM	1000 to 10000 nM	100 to 1000 nM	< 100 nM			CCN(c1nc(OC[C@@]23CCCN2C[C@H](F)C3)nc2c(F)c(-c3ccc(F)c4sc(N)c(C#N)c34)c(C(F)(F)F)cc12)[C@H]1CCN(c2nccs2)C1 [Compound 973]
< 100 nM	100 to 1000 nM	100 to 1000 nM	1000 to 10000 nM	100 to 1000 nM	< 100 nM									CN(Cc1cnccn1)c1nc(OC[C@@]23CCCN2C[C@H](F)C3)nc2c(F)c(-c3ccc(F)c4sc(N)c(C#N)c34)c(C(F)(F)F)cc12 (atropisomer, axis not shown) [Compound 872]
< 100 nM	100 to 1000 nM	100 to 1000 nM	1000 to 10000 nM	100 to 1000 nM	100 to 1000 nM									CN(C)C(=O)N1CC[C@H](N(CCF)c2nc(OC[C@@]34CCCN3C[C@H](F)C4)nc3c(F)c(-c4ccc(F)c5sc(N)c(C#N)c45)c(C(F)(F)F)cc23)C1 (atropisomer, axis not shown) [Compound 828]
< 100 nM	100 to 1000 nM	≤ 100 nM	100 to 1000 nM	100 to 1000 nM	< 100 nM									CCN(c1nc(OC[C@]23CCCN2C[C@H](F)C3)nc2c(F)c(-c3ccc(F)c4sc(N)c(C#N)c34)c(C(F)(F)F)cc12)[C@H]1CCN(C(=O)OC)C1 (atropisomer, axis not shown) [Compound 954]
	100 to 1000 nM	100 to 1000 nM	1000 to 10000 nM	100 to 1000 nM								< 100 nM	< 100 nM	CCN(c1nc(OCC23CCCN2CC(F)C3)nc2c(F)c(-c3ccc(F)c4sc(N)c(C#N)c34)c(C(F)(F)F)cc12)C1CCN(C(=O)c2cnc(C#N)s2)C1 (stereo not drawn) [Compound 960]
< 100 nM	100 to 1000 nM	100 to 1000 nM	100 to 1000 nM	100 to 1000 nM	< 100 nM									CCN(c1nc(OC[C@@]23CCCN2C[C@H](F)C3)nc2c(F)c(-c3ccc(F)c4sc(N)c(C#N)c34)c(C(F)(F)F)cc12)[C@H]1C[C@@H]2COCC(=O)N2C1 (atropisomer, axis not shown) [Compound 878]
< 100 nM	100 to 1000 nM	100 to 1000 nM	100 to 1000 nM	100 to 1000 nM	< 100 nM									CCN(c1nc(OC[C@@]23CCCN2C[C@H](F)C3)nc2c(F)c(-c3ccc(F)c4sc(N)c(C#N)c34)c(C(F)(F)F)cc12)[C@H]1CCN(C(=O)N2CC3(CCO3)C2)C1 (atropisomer, axis not shown) [Compound 851]
< 100 nM	100 to 1000 nM	100 to 1000 nM	100 to 1000 nM	100 to 1000 nM	< 100 nM									CCN(c1nc(OC[C@@]23CCCN2C[C@H](F)C3)nc2c(F)c(-c3ccc(F)c4sc(N)c(C#N)c34)c(C(F)(F)F)cc12)[C@H]1CCN(C(=O)C2CC2)[C@@H]1COC (atropisomer, axis not shown) [Compound 925]
< 100 nM	100 to 1000 nM	100 to 1000 nM	1000 to 10000 nM	100 to 1000 nM	< 100 nM									COC(=O)N1CC[C@H](N(CCF)c2nc(OC[C@@]34CCCN3C[C@H](F)C4)nc3c(F)c(-c4ccc(F)c5sc(N)c(C#N)c45)c(C(F)(F)F)cc23)C1 (atropisomer, axis not shown) [Compound 829]
< 100 nM	> 10000 nM	1000 to 10000 nM	1000 to 10000 nM	1000 to 10000 nM	< 100 nM									CCN(c1nc(OC[C@@]23CCCN2C[C@H](F)C3)nc2c(F)c(-c3ccc(F)c4sc(N)c(C#N)c34)c(C(F)(F)F)cc12)[C@@H]1CCN2C(=O)OC[C@H]12 (atropisomer, axis not shown) [Compound 941]
